In patent publication US8349297B2, “Topical formulations” (Medpharm Limited, priority 2005, dated 2013):
One block for each compound: values may come before it.

How the values were obtained:
[1] = Phase diagram construction with visual solubility assessment
Procedure: Formulations were prepared by the sequential weighing of the drug followed by the remaining excipients into a 10 mL PET glass coated canister. A magnetic stirrer bar was added and the formulations were crimped with a 100 μL valve. The formulations were allowed to shake for approximately 16 h at room temperature prior to the addition of HFA, and then shaken for a further 8 h prior to visual solubility assessment.

[2] = Solubility studies in PET canisters (clarity observed, ternary phase plot); assay type: physicochemical
Procedure: Solubility studies were conducted in clear, PET canisters. Stir bars were added to the canister and the canister was tared on an analytical balance. […] Lids were placed on the canisters and crimped. The solutions were left to stir overnight. […] All percentages are based on weight/weight calculations.

[3] = Stability of BMV in the skin permeation system; assay type: physicochemical; conditions: at both 4° C. and 37° C.
Procedure: Stratum corneum was isolated from a frozen human skin sample using standard protocol. The prepared skin was mounted on a filter support and placed on the receiver section of an upright Franz cell. The donor compartment was then fixed on top of the receiver compartment and secured using Parafilm. A magnetic flea and thermostatically regulated receiver fluid (90:10 Acetate Buffer pH=4.5:EtOH) were added to each Franz cell. These cells were placed in a bath at 37° C. and allowed to equilibrate and after a few hours a blank sample was taken from each cell. The integrity of each cell was determined via inversion and an appropriate amount of formulation was applied to the donor chamber of the Franz cell. […] Samples were held at room temperature until HPLC analysis.

drug level at which a saturated system could be formed ([1]; 83% HFA, ethanol level varied, co-povidone S-630): 2%
SMILES: O=C(O)c1ccccc1O [salicylic acid]

SMILES: O=C(OOC(=O)c1ccccc1)c1ccccc1 [BPO, Benzoyl peroxide]
drug level at which a saturated system could be formed ([1]; 10% ethanol, PVP K90): 1%

PVP level at which the drug becomes insoluble [2]: around 3 % PVP
maximum solubility [2]: 1-1.2%
time for which BMV was shown to be stable in the system [3]: up to 72 h
SMILES: CCCCC(=O)O[C@]1(C(=O)CO)[C@@H](C)C[C@H]2[C@@H]3CCC4=CC(=O)C=C[C@]4(C)[C@@]3(F)[C@@H](O)C[C@@]21C [BMV, betamethasone valerate]
